Molecular target: T1, HGFR (Homo sapiens, UniProt P08581)
T1 construct: purchased Upstate 14-526
Test: HGFR continuous-coupled spectrophotometric assay
Type: biochemical
Settings: at 1 pM; Table 6, library procedure 41; read-out: % Inhibition (percent c-MET inhibition)

T1 sequence (P08581 974-1390 limits assumed): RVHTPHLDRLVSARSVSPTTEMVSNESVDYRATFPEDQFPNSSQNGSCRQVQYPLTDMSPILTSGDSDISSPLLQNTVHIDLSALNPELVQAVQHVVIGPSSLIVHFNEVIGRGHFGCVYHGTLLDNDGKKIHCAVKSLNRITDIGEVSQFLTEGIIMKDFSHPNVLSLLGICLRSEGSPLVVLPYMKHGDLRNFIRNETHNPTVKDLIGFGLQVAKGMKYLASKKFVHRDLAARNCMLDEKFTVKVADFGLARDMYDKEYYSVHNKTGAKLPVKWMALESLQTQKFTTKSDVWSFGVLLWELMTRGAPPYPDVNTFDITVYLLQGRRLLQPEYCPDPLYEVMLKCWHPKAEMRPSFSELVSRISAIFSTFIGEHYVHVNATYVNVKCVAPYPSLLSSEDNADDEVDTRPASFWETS

In order of falling inhibition at 1 pM:
1. Nc1ncc(C(=O)N2CCC(O)C2)cc1OCc1c(Cl)cccc1Cl [Example L-227]  83%
2. Nc1ncc(C(=O)NCCOc2ccccc2)cc1OCc1c(Cl)cccc1Cl [Example L-242]  66%
3. Nc1ncc(C(=O)N2CCC(O)(Cc3ccccc3)CC2)cc1OCc1c(Cl)cccc1Cl [Example L-231]  62%
4. CC(O)CNC(=O)c1cnc(N)c(OCc2c(Cl)cccc2Cl)c1 [Example L-214]  49%
5. CC(C)OCCNC(=O)c1cnc(N)c(OCc2c(Cl)cccc2Cl)c1 [Example L-256]  46%
6. CC(CN(C)C)NC(=O)c1cnc(N)c(OCc2c(Cl)cccc2Cl)c1 [Example L-254]  45%
7. CCCOCCNC(=O)c1cnc(N)c(OCc2c(Cl)cccc2Cl)c1 [Example L-255]  45%
8. Nc1ncc(C(=O)N2CCC(CCO)CC2)cc1OCc1c(Cl)cccc1Cl [Example L-258]  45%
9. Nc1ncc(C(=O)N2CCC(CO)CC2)cc1OCc1c(Cl)cccc1Cl [Example L-257]  43%
10. CN(C)C(=O)CN1CCN(C(=O)c2cnc(N)c(OCc3c(Cl)cccc3Cl)c2)CC1 [Example L-262]  42%
11. CC1CCC(=O)C(NC(=O)c2cnc(N)c(OCc3c(Cl)cccc3Cl)c2)C1 [Example L-260]  40%
12. Nc1ncc(C(=O)N2CCN(CCCN3CCOCC3)CC2)cc1OCc1c(Cl)cccc1Cl [Example L-261]  40%
13. CC(C)(CO)CNC(=O)c1cnc(N)c(OCc2c(Cl)cccc2Cl)c1 [Example L-210]  39%
14. CN(CC(N)=O)C(=O)c1cnc(N)c(OCc2c(Cl)cccc2Cl)c1 [Example L-259]  39%
15. Nc1ncc(C(=O)NCc2ccc(F)cc2Cl)cc1OCc1c(Cl)cccc1Cl [Example L-250]  37%
16. Nc1ncc(C(=O)NCCc2c[nH]c3ccc(Cl)cc23)cc1OCc1c(Cl)cccc1Cl [Example L-212]  36%
17. CC(NC(=O)c1cnc(N)c(OCc2c(Cl)cccc2Cl)c1)c1ccc(O)cc1 [Example L-235]  36%
18. CC(CCCC(C)(C)O)NC(=O)c1cnc(N)c(OCc2c(Cl)cccc2Cl)c1 [Example L-218]  35%
19. CC(O)CCNC(=O)c1cnc(N)c(OCc2c(Cl)cccc2Cl)c1 [Example L-238]  35%
20. Nc1ncc(C(=O)NCCCN2CCCC2=O)cc1OCc1c(Cl)cccc1Cl [Example L-217]  34%
21. Nc1ncc(C(=O)NCCc2ccc(O)cc2)cc1OCc1c(Cl)cccc1Cl [Example L-219]  34%
22. Nc1ncc(C(=O)NCC2COc3ccccc3O2)cc1OCc1c(Cl)cccc1Cl [Example L-234]  34%
23. Nc1ncc(C(=O)NCCO)cc1OCc1c(Cl)cccc1Cl [Example L-239]  34%
24. Nc1ncc(C(=O)N2CCCCC2CCO)cc1OCc1c(Cl)cccc1Cl [Example L-207]  33%
25. Cc1cnc(CNC(=O)c2cnc(N)c(OCc3c(Cl)cccc3Cl)c2)cn1 [Example L-215]  33%
26. CN1CCC(N(C)C(=O)c2cnc(N)c(OCc3c(Cl)cccc3Cl)c2)C1 [Example L-225]  33%
27. Nc1ncc(C(=O)N2CCCC(O)C2)cc1OCc1c(Cl)cccc1Cl [Example L-236]  33%
28. CN(C)C1CCN(C(=O)c2cnc(N)c(OCc3c(Cl)cccc3Cl)c2)C1 [Example L-244]  33%
29. Nc1ncc(C(=O)NCc2ccc(F)cc2F)cc1OCc1c(Cl)cccc1Cl [Example L-245]  33%
30. CN1CCN(C(=O)c2cnc(N)c(OCc3c(Cl)cccc3Cl)c2)CC1 [Example L-205]  32%
31. Nc1ncc(C(=O)N2CCN(CC(=O)N3CCCC3)CC2)cc1OCc1c(Cl)cccc1Cl [Example L-206]  32%
32. Nc1ncc(C(=O)NCc2ccc(F)cc2)cc1OCc1c(Cl)cccc1Cl [Example L-220]  32%
33. COc1cc(CCNC(=O)c2cnc(N)c(OCc3c(Cl)cccc3Cl)c2)ccc1O [Example L-233]  32%
34. C[C@@H]1CN(C(=O)c2cnc(N)c(OCc3c(Cl)cccc3Cl)c2)C[C@H](C)O1 [Example L-243]  32%
35. Nc1ncc(C(=O)NCc2cccc(OC(F)F)c2)cc1OCc1c(Cl)cccc1Cl [Example L-249]  32%
36. Nc1ncc(C(=O)N2CCC(C(=O)c3ccccc3)CC2)cc1OCc1c(Cl)cccc1Cl [Example L-252]  32%
37. Nc1ncc(C(=O)N2CCN(CCCO)CC2)cc1OCc1c(Cl)cccc1Cl [Example L-209]  31%
38. Nc1ncc(C(=O)N2CCN(CC(=O)N3CCOCC3)CC2)cc1OCc1c(Cl)cccc1Cl [Example L-211]  31%
39. CC(=O)N(C)C1CCN(C(=O)c2cnc(N)c(OCc3c(Cl)cccc3Cl)c2)C1 [Example L-213]  31%
40. Nc1ncc(C(=O)NCC(F)(F)F)cc1OCc1c(Cl)cccc1Cl [Example L-224]  30%
41. CN(CC#N)C(=O)c1cnc(N)c(OCc2c(Cl)cccc2Cl)c1 [Example L-237]  30%
42. Nc1ncc(C(=O)NCCc2ccncc2)cc1OCc1c(Cl)cccc1Cl [Example L-240]  30%
43. CCCC(CO)NC(=O)c1cnc(N)c(OCc2c(Cl)cccc2Cl)c1 [Example L-241]  30%
44. NC(=O)N1CCN(C(=O)c2cnc(N)c(OCc3c(Cl)cccc3Cl)c2)CC1 [Example L-216]  29%
45. CN(C)CCNC(=O)c1cnc(N)c(OCc2c(Cl)cccc2Cl)c1 [Example L-221]  29%
46. Nc1ncc(C(=O)NCCc2c[nH]c3ccc(O)cc23)cc1OCc1c(Cl)cccc1Cl [Example L-223]  29%
47. Nc1ncc(C(=O)NCC(O)c2ccc(O)cc2)cc1OCc1c(Cl)cccc1Cl [Example L-251]  29%
48. CN(CCC(O)c1ccccc1)C(=O)c1cnc(N)c(OCc2c(Cl)cccc2Cl)c1 [Example L-246]  28%
49. NC(=O)CCNC(=O)c1cnc(N)c(OCc2c(Cl)cccc2Cl)c1 [Example L-253]  28%
50. COc1ccc(C(NC(=O)c2cnc(N)c(OCc3c(Cl)cccc3Cl)c2)C2CC2)cc1 [Example L-208]  27%
51. COCCN1CCN(C(=O)c2cnc(N)c(OCc3c(Cl)cccc3Cl)c2)CC1 [Example L-248]  27%
52. CC(C)CCNC(=O)c1cnc(N)c(OCc2c(Cl)cccc2Cl)c1 [Example L-222]  26%
53. COc1cc(CCNC(=O)c2cnc(N)c(OCc3c(Cl)cccc3Cl)c2)cc(OC)c1O [Example L-247]  25%
54. Nc1ncc(C(=O)NCc2ccc(OC(F)(F)F)cc2)cc1OCc1c(Cl)cccc1Cl [Example L-226]  24%
55. Nc1ncc(C(=O)NC[C@H]2CCCC[C@H]2O)cc1OCc1c(Cl)cccc1Cl [Example L-228]  24%
56. Nc1ncc(C(=O)N[C@@H]2CCCC[C@H]2CO)cc1OCc1c(Cl)cccc1Cl [Example L-229]  24%
57. Nc1ncc(C(=O)N[C@@H]2c3ccccc3C[C@@H]2O)cc1OCc1c(Cl)cccc1Cl [Example L-230]  23%

Same assay, conditions: read-out: % Inhibition (percent c-MET inhibition)

Work on Nc1ncc(C(=O)N2CCC(=O)CC2)cc1OCc1c(Cl)cccc1Cl [Example L-232] yielded an inhibition at 1 pM of 44%.
